Values joined by “and” are separate entries in the source; they are usually repeats but may differ in a detail not shown here. Equal values may be shown once.
Tested on: 186277-243-T-J2-PDC complex spheroids, viability
Experiment: Anticancer human tumor 186277-243-T-J2-PDC patient-derived colon adenocarcinoma cell line growth inhibition [RAS]
Conditions: for viability, T/C: stronger effect = lower value; active means viability on the fitted dose curve at most 10% of control; inactive means the rest
In short: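 Tumour cells grown as complex spheroids with HUVEC endothelial cells and mesenchymal stem cells, treated with RAS pathway inhibitor combinations. Each agent spans half-log steps from near clinical Cmax, or 10 microM where Cmax is unknown.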

[1] = curve of first compound, second compound 0.000949 µM
[2] = curve of first compound, second compound 0.003 µM
[3] = curve of first compound, second compound 0.00949 µM
[4] = curve of first compound, second compound 0.03 µM
[5] = curve of first compound, second compound 0.0949 µM
[6] = curve of first compound, second compound 0.3 µM
[7] = second compound 0.000949 µM, first compound 0.0316 µM
[8] = second compound 0.000949 µM, first compound 0.1 µM
[9] = second compound 0.000949 µM, first compound 0.316 µM
[10] = second compound 0.000949 µM, first compound 1 µM
[11] = second compound 0.003 µM, first compound 0.0316 µM
[12] = second compound 0.003 µM, first compound 0.1 µM
[13] = second compound 0.003 µM, first compound 0.316 µM
[14] = second compound 0.003 µM, first compound 1 µM
[15] = second compound 0.00949 µM, first compound 0.0316 µM
[16] = second compound 0.00949 µM, first compound 0.1 µM
[17] = second compound 0.00949 µM, first compound 0.316 µM
[18] = second compound 0.00949 µM, first compound 1 µM
[19] = second compound 0.03 µM, first compound 0.0316 µM
[20] = second compound 0.03 µM, first compound 0.1 µM
[21] = second compound 0.03 µM, first compound 0.316 µM
[22] = second compound 0.03 µM, first compound 1 µM
[23] = second compound 0.0949 µM, first compound 0.0316 µM
[24] = second compound 0.0949 µM, first compound 0.1 µM
[25] = second compound 0.0949 µM, first compound 0.316 µM
[26] = second compound 0.0949 µM, first compound 1 µM
[27] = second compound 0.3 µM, first compound 0.0316 µM
[28] = second compound 0.3 µM, first compound 0.1 µM
[29] = second compound 0.3 µM, first compound 0.316 µM
[30] = second compound 0.3 µM, first compound 1 µM
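Further: spheroids exposed to compounds for 7 days before viability read.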

CC1(C)CCC(Nc2ncc(C(F)(F)F)c(-c3c[nH]c4c(P(C)(C)=O)c(C#N)ccc34)n2)CN1 (configuration not stated)
> 0.3 µM and 0.287 µM and 0.197 µM: IC50 (curve of compound)
inactive: viability, T/C (compound 0.000949 µM) 89.9% [middle of 4 runs] | viability, T/C (compound 0.003 µM) 102% and 101% (2×) and 97% | viability, T/C (compound 0.00949 µM) 99.2% [middle of 4 runs] | viability, T/C (compound 0.0949 µM) 60.8% and 56.4% (2×) and 71.4% | viability, T/C (compound 0.3 µM) 63.9% [middle of 4 runs]

CCc1c2c(nc3ccc(O)cc13)-c1cc3c(c(=O)n1C2)COC(=O)[C@]3(O)CC
inactive: viability, T/C (compound 0.00949 µM) 71.8% [middle of 4 runs] | viability, T/C (compound 0.03 µM) 47.5% [middle of 4 runs] | viability, T/C (compound 0.0949 µM) 18.6% [middle of 4 runs] | viability, T/C (compound 0.3 µM) 15.9% [middle of 4 runs]

CCN1CCN(Cc2ccc(Nc3ncc(F)c(-c4cc(F)c5nc(C)n(C(C)C)c5c4)n3)nc2)CC1 + C=CC(=O)N1CCN(c2nc(OCC3CCCN3C)nc3c(F)c(-c4nc(N)cc(C)c4C(F)(F)F)c(Cl)cc23)C(C)C1
> 1 µM: IC50 (curve of first compound, second compound 0.00316 µM) | IC50 (curve of first compound, second compound 0.01 µM) | IC50 (curve of first compound, second compound 0.0316 µM) | IC50 (curve of first compound, second compound 0.1 µM) | IC50 (curve of first compound, second compound 0.316 µM) | IC50 (curve of first compound, second compound 1 µM)
inactive: viability, T/C (second compound 0.00316 µM, first compound 0.00316 µM) 136% | viability, T/C (second compound 0.00316 µM, first compound 0.01 µM) 129% | viability, T/C (second compound 0.00316 µM, first compound 0.0316 µM) 141% | viability, T/C (second compound 0.00316 µM, first compound 0.1 µM) 114% | viability, T/C (second compound 0.00316 µM, first compound 0.316 µM) 125% | viability, T/C (second compound 0.00316 µM, first compound 1 µM) 99.5% | viability, T/C (second compound 0.01 µM, first compound 0.00316 µM) 87.9% | viability, T/C (second compound 0.01 µM, first compound 0.01 µM) 108% | viability, T/C (second compound 0.01 µM, first compound 0.0316 µM) 127% | viability, T/C (second compound 0.01 µM, first compound 0.1 µM) 99.7% | viability, T/C (second compound 0.01 µM, first compound 0.316 µM) 121% | viability, T/C (second compound 0.01 µM, first compound 1 µM) 92.9% | viability, T/C (second compound 0.0316 µM, first compound 0.00316 µM) 94.6% | viability, T/C (second compound 0.0316 µM, first compound 0.01 µM) 107% | viability, T/C (second compound 0.0316 µM, first compound 0.0316 µM) 119% | viability, T/C (second compound 0.0316 µM, first compound 0.1 µM) 154% | viability, T/C (second compound 0.0316 µM, first compound 0.316 µM) 114% | viability, T/C (second compound 0.0316 µM, first compound 1 µM) 101% | viability, T/C (second compound 0.1 µM, first compound 0.00316 µM) 101% | viability, T/C (second compound 0.1 µM, first compound 0.01 µM) 112% | viability, T/C (second compound 0.1 µM, first compound 0.0316 µM) 142% | viability, T/C (second compound 0.1 µM, first compound 0.1 µM) 149% | viability, T/C (second compound 0.1 µM, first compound 0.316 µM) 138% | viability, T/C (second compound 0.1 µM, first compound 1 µM) 79.3% | viability, T/C (second compound 0.316 µM, first compound 0.00316 µM) 90.3% | viability, T/C (second compound 0.316 µM, first compound 0.01 µM) 106% | viability, T/C (second compound 0.316 µM, first compound 0.0316 µM) 117% | viability, T/C (second compound 0.316 µM, first compound 0.1 µM) 115% | viability, T/C (second compound 0.316 µM, first compound 0.316 µM) 152% | viability, T/C (second compound 0.316 µM, first compound 1 µM) 97.8% | viability, T/C (second compound 1 µM, first compound 0.00316 µM) 117% | viability, T/C (second compound 1 µM, first compound 0.01 µM) 112% | viability, T/C (second compound 1 µM, first compound 0.0316 µM) 122% | viability, T/C (second compound 1 µM, first compound 0.1 µM) 140% | viability, T/C (second compound 1 µM, first compound 0.316 µM) 135% | viability, T/C (second compound 1 µM, first compound 1 µM) 105%

CCn1c(-c2cc(N3CCN(C)CC3)cnc2C(C)OC)c2c3cc(ccc31)-c1csc(n1)CC(NC(=O)C1CC1C)C(=O)N1CCCC(N1)C(=O)OCC(C)(C)C2 (configuration not stated)
15.2% [middle of 8 runs]: viability, T/C (compound 0.03 µM)
10.4 nM [middle of 8 runs]: IC50 (compound alone, run of 05/20/2024)
inactive: viability, T/C (compound 0.000949 µM) 105% [middle of 8 runs] | viability, T/C (compound 0.00949 µM) 55.2% [middle of 8 runs]
6.43% [middle of 8 runs]: viability, T/C (compound 0.3 µM)
active: viability, T/C (compound 0.0949 µM) 7.7% [middle of 7 runs]

C=CC(=O)Nc1cc(Nc2nccc(-c3cn(C)c4ccccc34)n2)c(OC)cc1N(C)CCN(C)C + CCn1c(-c2cc(N3CCN(C)CC3)cnc2C(C)OC)c2c3cc(ccc31)-c1csc(n1)CC(NC(=O)C1CC1C)C(=O)N1CCCC(N1)C(=O)OCC(C)(C)C2
active: viability, T/C [18] 5.19% | viability, T/C [20] 9.43% | viability, T/C [21] 5.63% | viability, T/C [22] 4.11% | viability, T/C (second compound 0.0949 µM, first compound 0.00316 µM) 7.42% | viability, T/C (second compound 0.0949 µM, first compound 0.01 µM) 6.89% | viability, T/C [23] 5.88% | viability, T/C [24] 4.8% | viability, T/C [25] 4.22% | viability, T/C [26] 2.72% | viability, T/C (second compound 0.3 µM, first compound 0.00316 µM) 6% | viability, T/C (second compound 0.3 µM, first compound 0.01 µM) 6% | viability, T/C [27] 4.87% | viability, T/C [28] 4.47% | viability, T/C [29] 4.17% | viability, T/C [30] 2.68%
inactive: viability, T/C (second compound 0.000949 µM, first compound 0.00316 µM) 103% | viability, T/C (second compound 0.000949 µM, first compound 0.01 µM) 112% | viability, T/C [7] 107% | viability, T/C [8] 115% | viability, T/C [9] 85.2% | viability, T/C [10] 52.6% | viability, T/C (second compound 0.003 µM, first compound 0.00316 µM) 106% | viability, T/C (second compound 0.003 µM, first compound 0.01 µM) 104% | viability, T/C [11] 91.8% | viability, T/C [12] 81.6% | viability, T/C [13] 52.3% | viability, T/C [14] 15.8% | viability, T/C (second compound 0.00949 µM, first compound 0.00316 µM) 58.3% | viability, T/C (second compound 0.00949 µM, first compound 0.01 µM) 48.7% | viability, T/C [15] 40.6% | viability, T/C [16] 28.8% | viability, T/C [17] 10.8% | viability, T/C (second compound 0.03 µM, first compound 0.00316 µM) 18.4% | viability, T/C (second compound 0.03 µM, first compound 0.01 µM) 15.4% | viability, T/C [19] 12.1%
> 1 µM: IC50 [1]
0.348 µM: IC50 [2]
< 0.00316 µM: IC50 [4] | IC50 [5] | IC50 [6]
0.0109 µM: IC50 [3]

C[C@@H](NC(=O)c1ncnc(N)c1Cl)c1ncc(C(=O)Nc2cc(C(F)(F)F)c(Cl)cn2)s1 + CCn1c(-c2cccnc2C(C)OC)c2c3cc(ccc31)N1CCOC(CC(NC(=O)C(C(C)C)N(C)C(=O)C3(F)CCN(C(=O)C#CC(C)(C)N(C)C)CC3)C(=O)N3CCCC(N3)C(=O)OCC(C)(C)C2)C1
> 10 µM: IC50 [1] | IC50 [2] | IC50 [3] | IC50 [4] | IC50 [5] | IC50 [6]
inactive: viability, T/C [7] 103% | viability, T/C [8] 85.1% | viability, T/C [9] 87.7% | viability, T/C [10] 96.6% | viability, T/C (second compound 0.000949 µM, first compound 3.16 µM) 104% | viability, T/C (second compound 0.000949 µM, first compound 10 µM) 80.5% | viability, T/C [11] 91.5% | viability, T/C [12] 84.5% | viability, T/C [13] 90.7% | viability, T/C [14] 90.1% | viability, T/C (second compound 0.003 µM, first compound 3.16 µM) 92.9% | viability, T/C (second compound 0.003 µM, first compound 10 µM) 95.1% | viability, T/C [15] 101% | viability, T/C [16] 95.3% | viability, T/C [17] 93.1% | viability, T/C [18] 105% | viability, T/C (second compound 0.00949 µM, first compound 3.16 µM) 94.6% | viability, T/C (second compound 0.00949 µM, first compound 10 µM) 82.6% | viability, T/C [19] 93.8% | viability, T/C [20] 95.4% | viability, T/C [21] 89.2% | viability, T/C [22] 85.8% | viability, T/C (second compound 0.03 µM, first compound 3.16 µM) 95.7% | viability, T/C (second compound 0.03 µM, first compound 10 µM) 72.5% | viability, T/C [23] 102% | viability, T/C [24] 116% | viability, T/C [25] 104% | viability, T/C [26] 113% | viability, T/C (second compound 0.0949 µM, first compound 3.16 µM) 110% | viability, T/C (second compound 0.0949 µM, first compound 10 µM) 76.3% | viability, T/C [27] 109% | viability, T/C [28] 120% | viability, T/C [29] 114% | viability, T/C [30] 112% | viability, T/C (second compound 0.3 µM, first compound 3.16 µM) 103% | viability, T/C (second compound 0.3 µM, first compound 10 µM) 57%

— PubChem BioAssay AID2060908 (Molecular Pharmacology Branch, DTP, NCI, 2025)
